Results reported in patent US20130131161A1, “METHODS AND COMPOSITIONS FOR CARDIOVASCULAR DISEASES AND CONDITIONS” (priority 2009, published 2013).
Values joined by “and” are separate entries in the source; they are usually repeats but may differ in a detail not shown here. Equal values may be shown once.

Tested on: Human umbilical vein endothelial cells (HUVECs)
Assay: eNOS activity analysis: NO, ONOO− and NO/ONOO− release from HUVECs of 50 genotyped donors in response to LA-419 (Example 2)
Type: cell-based
Settings: for Fold difference NO/ONOO− (mean ± sd) / Fold difference ONOO− (mean ± sd) / Fold difference NO (mean ± sd): Caucasian, (LA-419 5 μM)/(control); for % Change NO (mean ± sd) / % Change NO/ONOO− (mean ± sd) / % Change ONOO− (mean ± sd): LA-419 1 μM vs control
Procedure: Concurrent measurements of NO and ONOO^− were carried out with tandem electrochemical nanosensors combined into one working unit with a total diameter of 200-500 nm (FIG. 1). Their design was based on previously developed and well-characterized chemically modified carbon-fiber technology (Malinski and Taha, 1992; Lvovich and Scheeline, 1997). Each of the nanosensors was made by depositing a sensing material on the tip of a carbon fiber (length 4-5 μm, diameter 0.2-0.5 μm). The fibers were sealed with nonconductive epoxy and electrically connected to copper wires with conductive silver epoxy. A conductive film of polymeric nickel (II) tetrakis(3-methoxy-4-hydroxyphenyl)porphyrin for the NO-sensor and polymeric film of Mn (III) [2.2]paracyclophanylporphyrin was used for the ONOO^−-sensor.
A module of NO/ONOO^− nanosensors (diameter 1-2 μm) with a platinum wire (0.1 mm) counter electrode and saturated calomel reference electrode (SCE) were applied. Differential pulse voltammetry (DPV) and amperometry were performed with a computer-based Gamry VFP600 multichannel potentiostat. DPV was used to measure the basal NO and ONOO^− concentrations, and amperometry was used to measure changes in NO and ONOO^− concentrations from its basal level with time. The DPV current at the peak potential characteristic for NO oxidation (0.65 V) and ONOO^− reduction (−0.45 V) was directly proportional to the local concentrations of these compounds in the immediate vicinity of the sensor. Linear calibration curves (current vs. concentration) were constructed for each sensor from 10 nM to 3 μM before and after measurements with aliquots of NO and ONOO^− standard solutions, respectively. The detection limit of the sensors was 1.0 nM.
The quantification of each analyte (concentration in nM) was performed using a maximum current from amperograms and standard calibration curves. A reproducibility of measurements with nanosensors is relatively high (between 5-12%). […] The sensors were slowly raised 5±2 μm from the surface of a single endothelial cell. The eNOS agonist, calcium ionophore A23187 (CaI) as well as the different drugs were then added to the surrounding media at the cell surface with a nanoinjector that was also positioned by a computer controlled-micromanipulator.
This example describes the genotype-specific response of the three major eNOS variants to 1 μM and 5 μM concentrations of LA-419. The three major genetic polymorphisms studied were the Glu298Asp variant (E298D or 894G→T) in exon 7 of […], the −786T→C variant in the promoter region, and the intron 4 polymorphism (VNTR). All of these variants have possible effects on the cardiovascular system and endothelial dysfunction. For this study, human umbilical vein endothelial cells (HUVECs) from 50 donors between 18 and 32 years of age were used.
For the analysis several analysis techniques were employed. First, the effect of genotype on NO and ONOO^− release was explored within the different concentrations of LA-419 (control, 1 μM, 5 μM), calculated as the average peak release (nmols/L) of NO, ONOO^−, and NO/ONOO^−. The effect of genotype on the net increase in NO, ONOO^−, and NO/ONOO^− for LA-419 (1 μM and 5 μM) as compared to control was also measured. In addition, an analysis was done on the effect of genotype on the % change in NO, ONOO^−, and NO/ONOO^− production for LA-419 (1 μM and 5 μM), calculated as:
% Change=[(avg. LA-419−avg. control)/(avg. control)]*100
Finally, an evaluation was undertaken concerning the effect of genotype on the production of NO, ONOO^−, and NO/ONOO^− as the fold difference of control for LA-419 (1 μM and 5 μM), calculated as:
Fold Difference=(avg. LA-419)/(avg. control)
Within each calculation technique the results were compared for statistical significance using a non-parametric ANOVA Kruskal-Wallace test or a non-parametric Mann-Whitney U test. Statistical significance was set at a p-value <0.05 in a two-tailed distribution. […]

[1] = HUVEC donor Race Caucasian/Black

In the case of `CC(=O)SC1COC2C(O[N+](=O)[O-])COC12` (stereo not drawn) [LA-419, S-(6-Nitro-oxi-hexahydro-furo[3,2-b]furan-3-1-il)thioacetate], the “Fold difference NO/ONOO− (mean ± sd)” value (G894T G/G, n=10) was 1.47 (0.12), the “Fold difference ONOO− (mean ± sd)” value (G894T G/G, n=10) was 0.81 (0.04) and the “Fold difference NO (mean ± sd)” value (G894T G/T & T/T, n=16) was 1.11 (0.05). The “Fold difference NO/ONOO− (mean ± sd)” value (G894T G/T & T/T, n=16) was 1.35 (0.10), the “Fold difference ONOO− (mean ± sd)” value (G894T G/T & T/T, n=16) was 0.83 (0.07) and the “Fold difference NO (mean ± sd)” value (G894T G/T, n=13) was 1.12 (0.05). The “Fold difference NO/ONOO− (mean ± sd)” value (G894T G/T, n=13) was 1.34 (0.09), the “Fold difference ONOO− (mean ± sd)” value (G894T G/T, n=13) was 0.83 (0.06) and the “Fold difference NO (mean ± sd)” value (G894T T/T, n=3) was 1.11 (0.07). The “Fold difference NO/ONOO− (mean ± sd)” value (G894T T/T, n=3) was 1.39 (0.17), the “Fold difference ONOO− (mean ± sd)” value (G894T T/T, n=3) was 0.80 (0.12) and the “Fold difference NO (mean ± sd)” value (Intron 4 b/a & a/a, n=6) was 1.16 (0.06). For the same compound, the “Fold difference NO/ONOO− (mean ± sd)” value (Intron 4 b/a & a/a, n=6) was 1.39 (0.11), the “Fold difference ONOO− (mean ± sd)” value (Intron 4 b/a & a/a, n=6) was 0.83 (0.05) and the “Fold difference NO (mean ± sd)” value (Intron 4 b/a, n=5) was 1.16 (0.06). For the same compound, the “Fold difference NO/ONOO− (mean ± sd)” value (Intron 4 b/a, n=5) was 1.39 (0.12), the “Fold difference ONOO− (mean ± sd)” value (Intron 4 b/a, n=5) was 0.83 (0.05) and the “Fold difference NO (mean ± sd)” value (Intron 4 b/b, n=18) was 1.13 (0.07). For the same compound, the “Fold difference NO/ONOO− (mean ± sd)” value (Intron 4 b/b, n=18) was 1.39 (0.13), the “Fold difference ONOO− (mean ± sd)” value (Intron 4 b/b, n=18) was 0.82 (0.06) and the “Fold difference NO (mean ± sd)” value (T-786C T/C & C/C, n=16) was 1.12 (0.06). The “Fold difference NO/ONOO− (mean ± sd)” value (T-786C T/C & C/C, n=16) was 1.36 (0.10), the “Fold difference ONOO− (mean ± sd)” value (T-786C T/C & C/C, n=16) was 0.82 (0.06) and the “Fold difference NO (mean ± sd)” value (T-786C T/C, n=15) was 1.13 (0.06). For the same compound, the “Fold difference NO/ONOO− (mean ± sd)” value (T-786C T/C, n=15) was 1.35 (0.09), the “Fold difference ONOO− (mean ± sd)” value (T-786C T/C, n=15) was 0.83 (0.04) and the “Fold difference NO (mean ± sd)” value (T-786C T/T, n=10) was 1.17 (0.08). The “Fold difference NO/ONOO− (mean ± sd)” value (T-786C T/T, n=10) was 1.49 (0.14) and 1.45 (0.14), the “Fold difference ONOO− (mean ± sd)” value (T-786C T/T, n=10) was 0.82 (0.07) and the “peak release of NO versus control” value (LA-419 1 μM (Table c1)) was “smaller increase”. For the same compound, the “ONOO− production versus control” value (LA-419 1 μM (Table c2)) was “no apparent decrease”, the “% Change NO (mean ± sd)” value [1] was 9.57 (6.43) % and the “% Change NO/ONOO− (mean ± sd)” value [1] was 3.77 (26.27) %. For the same compound, the “% Change ONOO− (mean ± sd)” value [1] was 9.37 (21.79) %, the “% Change NO (mean ± sd)” value (HUVEC donor Race Not Reported) was 14.50 (2.19) % and the “% Change NO/ONOO− (mean ± sd)” value (HUVEC donor Race Not Reported) was 37.24 (1.75) %. The “% Change ONOO− (mean ± sd)” value (HUVEC donor Race Not Reported) was −16.55 (2.66) %, the “% Change NO (mean ± sd)” value (HUVEC donor alpha) was −4.73 (18.81) % and the “% Change NO/ONOO− (mean ± sd)” value (HUVEC donor alpha) was −8.17 (36.37) %. The “% Change ONOO− (mean ± sd)” value (HUVEC donor alpha) was 16.25 (36.48) %, the “% Change NO (mean ± sd)” value (HUVEC donor beta) was 21.25 (25.58) % and the “% Change NO/ONOO− (mean ± sd)” value (HUVEC donor beta) was 61.80 (74.46) %. For the same compound, the “% Change ONOO− (mean ± sd)” value (HUVEC donor beta) was −18.41 (17.30) %, the “% Change NO (mean ± sd)” value (HUVEC donor delta) was 8.95 (0) % and the “% Change NO/ONOO− (mean ± sd)” value (HUVEC donor delta) was 33.68 (0) %. The “% Change ONOO− (mean ± sd)” value (HUVEC donor delta) was −18.50 (0) %, the “% Change NO (mean ± sd)” value (HUVEC donor gamma) was 11.74 (17.99) % and the “% Change NO/ONOO− (mean ± sd)” value (HUVEC donor gamma) was 26.85 (45.85) %. For the same compound, the “% Change ONOO− (mean ± sd)” value (HUVEC donor gamma) was −6.29 (19.74) %, the “% Change NO (mean ± sd)” value (HUVECs G894T variant G/G) was 7.77 (18.82) % and the “% Change NO/ONOO− (mean ± sd)” value (HUVECs G894T variant G/G) was 21.83 (51.78) %. The “% Change ONOO− (mean ± sd)” value (HUVECs G894T variant G/G) was −2.10 (27.33) %, the “% Change NO (mean ± sd)” value (HUVECs G894T variant G/T) was 20.99 (29.98) % and the “% Change NO/ONOO− (mean ± sd)” value (HUVECs G894T variant G/T) was 50.45 (77.28) %. For the same compound, the “% Change ONOO− (mean ± sd)” value (HUVECs G894T variant G/T) was −9.58 (26.95) %, the “% Change NO (mean ± sd)” value (HUVECs G894T variant T/T) was 8.69 (18.85) % and the “% Change NO/ONOO− (mean ± sd)” value (HUVECs G894T variant T/T) was 61.97 (81.82) %. For the same compound, the “% Change ONOO− (mean ± sd)” value (HUVECs G894T variant T/T) was −25.44 (21.34) %, the “% Change NO (mean ± sd)” value (HUVECs Intron 4 variant a/a) was −4.57 (24.67) % and the “% Change NO/ONOO− (mean ± sd)” value (HUVECs Intron 4 variant a/a) was −3.62 (44.56) %. The “% Change ONOO− (mean ± sd)” value (HUVECs Intron 4 variant a/a) was 9.62 (33.98) %, the “% Change NO (mean ± sd)” value (HUVECs Intron 4 variant b/a) was 20.51 (28.08) % and the “% Change NO/ONOO− (mean ± sd)” value (HUVECs Intron 4 variant b/a) was 42.92 (65.15) %. The “% Change ONOO− (mean ± sd)” value (HUVECs Intron 4 variant b/a) was −6.58 (30.92) %, the “% Change NO (mean ± sd)” value (HUVECs Intron 4 variant b/b) was 13.46 (23.13) % and the “% Change NO/ONOO− (mean ± sd)” value (HUVECs Intron 4 variant b/b) was 43.27 (71.09) %. For the same compound, the “% Change ONOO− (mean ± sd)” value (HUVECs Intron 4 variant b/b) was −10.24 (27.17) %, the “% Change NO (mean ± sd)” value (HUVECs Intron 4 variant c/c) was −26.76 (0) % and the “% Change NO/ONOO− (mean ± sd)” value (HUVECs Intron 4 variant c/c) was −26.15 (0) %. The “% Change ONOO− (mean ± sd)” value (HUVECs Intron 4 variant c/c) was −0.63 (0) %, the “% Change NO (mean ± sd)” value (HUVECs T-786C variant C/C) was 1.91 (11.63) % and the “% Change NO/ONOO− (mean ± sd)” value (HUVECs T-786C variant C/C) was 2.52 (35.64) %. The “% Change ONOO− (mean ± sd)” value (HUVECs T-786C variant C/C) was 11.13 (43.85) %, the “% Change NO (mean ± sd)” value (HUVECs T-786C variant T/C) was 17.70 (29.53) % and the “% Change NO/ONOO− (mean ± sd)” value (HUVECs T-786C variant T/C) was 52.82 (77.96) %. The “% Change ONOO− (mean ± sd)” value (HUVECs T-786C variant T/C) was −12.40 (28.22) %, the “% Change NO (mean ± sd)” value (HUVECs T-786C variant T/T) was 9.48 (17.79) % and the “% Change NO/ONOO− (mean ± sd)” value (HUVECs T-786C variant T/T) was 25.48 (51.97) %. The “% Change ONOO− (mean ± sd)” value (HUVECs T-786C variant T/T) was −5.17 (21.75) %, the “% Change Ratio, % Change NO/% Change ONOO− (mean ± sd)” value (LA-419 1 μM, HUVEC donor Race Asian) was −0.48 (0) and the “% Change Ratio, % Change NO/% Change ONOO− (mean ± sd)” value (LA-419 1 μM, HUVEC donor Race Black) was 2.81 (12.60). The “% Change Ratio, % Change NO/% Change ONOO− (mean ± sd)” value (LA-419 1 μM, HUVEC donor Race Not Reported) was −0.90 (0.28) and the “Net increase over control NO (mean ± sd)” value (LA-419 1 μM, HUVECs G894T + T-786C Combination of all genotypes other than G/G + T/T) was 38.70 (72.56) nmols/L.
